The source of these data is patent US10668043B2, “Potentiated antimicrobial agents” (priority 2014, dated 2020).

The test system of one series is MSSA 8238. Conditions: Sc.; gentamycin 6 mg/kg or amoxicillin 30 mg/kg, cineol 30 mg/kg where present.
The subject of another series is Pasteurella. The series can be described thus: etest on agar containing the booster. It counts as cell-based. The source says:
The corresponding tests are made based on the usual MIC test: the etest® (Biomerieux) strip is deposited onto the surface of a seeded agar medium in which the booster has been incorporated.
(§1) The control corresponds to the test made without cineol. A control is made in each solvent tested: distilled water, Tween/water and DMSO. • ED control=antibiotic alone in distilled water • DMSO control=antibiotic alone in DMSO • TE control=antibiotic alone in Tween® 80
Other e-tests are also made on Pasteurella.

Another series relates to Strain 9003/BLSE. In words: Resistance: occurrence of resistant mutants. It counts as cell-based. Conditions: 4 times the MIC; 48 h incubation; DMSO. As for the experimental part: (§2) After 48 h incubation, the presence or absence of colonies likely to be resistant mutants is observed.
The subject of the next series is Strain 10168/MRSA. The series can be described thus: Resistance: occurrence of resistant mutants. Conditions: 4 times the MIC; 48 h incubation; DMSO. It is filed as cell-based, S. aureus. The protocol:
as §2

Another series concerns Staphylococcus. The series can be described thus: etest on agar containing the booster. Conditions: MRSA 10178, read-out: MIC. It is filed as cell-based.
Source text: (§3) The corresponding tests are made based on the usual MIC test: the etest® (Biomerieux) strip is deposited onto the surface of a seeded agar medium in which the booster has been incorporated. This test enables solvent effect risks, that is a possible interaction with the solvent used in vitro, to be minimised.
as §1

In the next series the test system is E. coli. In words: etest on agar containing the booster. It counts as cell-based. Conditions: Escherichia coli, read-out: MIC.
Source text: as §3, §1

Setting [1] is: strain 14012, 5 mg cineol water.
[2] abbreviates: strain 14012, 10 mg cineol DMSO.
Setting [3] is: strain 14012, 10 mg cineol water.

Converted amounts (≈) assume the structure as drawn. Where two headings read alike, the source gives them in different places.

Procedure for MSSA 8238: To Balb/c mice, is injected (Sc.) the antimicrobial product or the antimicrobial+booster mixture.
At different post-injection times, the mice are euthanised, and blood sampled, heparined and centrifuged to extract plasma thereof
Antibacterial effects are measured after 24 h incubation. The successive dilutions enable the antimicrobial effect to be determined and compared with the MIC. The efficient concentration/MIC ratio is thus determined.

Consider gentamycin, for which, in the series with MSSA 8238, the “Time spent beyond the MIC” value was less than 5 h.

On to `O=C(O)c1cn(C2CC2)c2cc(N3CCNCC3)c(F)cc2c1=O` [Ciprofloxacin, ciprofloxacin], for which the MIC (e-test) in the series on Pasteurella (strain 14012, 5 mg cineol DMSO) came out at 0.004 µg/mL (≈ 0.0121 µM); with Pasteurella (strain 14012, 5 mg cineol TE) it was 0.004 µg/mL (≈ 0.0121 µM); in the series on Pasteurella (setting [1]), 0.003 µg/mL (≈ 0.00905 µM); against Pasteurella (setting [2]) it was 0.004 µg/mL (≈ 0.0121 µM); against Pasteurella (strain 14012, 10 mg cineol TE) it was 0.006 µg/mL (≈ 0.0181 µM); against Pasteurella (setting [3]), 0.004 µg/mL (≈ 0.0121 µM). For the same molecule, the MIC (e-test) against Pasteurella (strain 14012, DMSO control) was found to be 0.006 µg/mL (≈ 0.0181 µM); against Pasteurella (strain 14012, ED control), 0.004 µg/mL (≈ 0.0121 µM); with Pasteurella (strain 14012, TE control) it was 0.006 µg/mL (≈ 0.0181 µM); in the series on Pasteurella (strain 14013, 5 mg cineol DMSO), 0.012 µg/mL (≈ 0.0362 µM); in the series on Pasteurella (strain 14013, 5 mg cineol TE), 0.012 µg/mL (≈ 0.0362 µM); in the series with Pasteurella (strain 14013, 5 mg cineol water), 0.012 µg/mL (≈ 0.0362 µM). For the same molecule, the MIC (e-test) with Pasteurella (strain 14013, 10 mg cineol DMSO) amounted to 0.012 µg/mL (≈ 0.0362 µM); against Pasteurella (strain 14013, 10 mg cineol TE), 0.012 µg/mL (≈ 0.0362 µM); in the series on Pasteurella (strain 14013, 10 mg cineol water), 0.016 µg/mL (≈ 0.0483 µM); with Pasteurella (strain 14013, DMSO control), 0.012 µg/mL (≈ 0.0362 µM); in the series with Pasteurella (strain 14013, ED control) it was 0.012 µg/mL (≈ 0.0362 µM); against Pasteurella (strain 14013, TE control), 0.016 µg/mL (≈ 0.0483 µM). For the same molecule, the “colonies likely to be resistant mutants” value in the series with Strain 9003/BLSE is “Numerous”; in the series on Strain 10168/MRSA it was “invaded”.

As to `CCC[C@@H]1C[C@@H](C(=O)N[C@@H]([C@H]2O[C@H](SC)[C@H](O)[C@@H](O)[C@H]2O)[C@H](C)Cl)N(C)C1` [Clindamycin], the MIC in the series on Staphylococcus (Cineol 1 mg DMSO) was 0.094 µg/mL (≈ 0.221 µM); with Staphylococcus (Cineol 1 mg Tween/water), 0.064 µg/mL (≈ 0.151 µM); in the series on Staphylococcus (Cineol 4 mg DMSO) it was 0.064 µg/mL (≈ 0.151 µM); in the series on Staphylococcus (Cineol 4 mg Tween/water), 0.064 µg/mL (≈ 0.151 µM); with Staphylococcus (Cineol 16 mg DMSO) it was 0.047 µg/mL (≈ 0.111 µM); in the series with Staphylococcus (Cineol 16 mg Tween/water) it was 0.047 µg/mL (≈ 0.111 µM). For the same molecule, the MIC in the series on Staphylococcus (DMSO control (antibiotic alone)) is 0.064 µg/mL (≈ 0.151 µM); with Staphylococcus (ED control (antibiotic alone in distilled water)) it was 0.094 µg/mL (≈ 0.221 µM); in the series on Staphylococcus (Tween water control (antibiotic alone)) it was 0.19 µg/mL (≈ 0.447 µM).

Turning to `CO[C@@]1(NC(=O)Cc2cccs2)C(=O)N2C(C(=O)O)=C(COC(N)=O)CS[C@@H]21` [Cefoxitin], the MIC (e-test) against Pasteurella (strain 14012, 5 mg cineol DMSO) turned out to be 0.5 µg/mL (≈ 1.17 µM); with Pasteurella (strain 14012, 5 mg cineol TE), 0.5 µg/mL (≈ 1.17 µM); against Pasteurella (setting [1]), 0.5 µg/mL (≈ 1.17 µM); in the series with Pasteurella (setting [2]), 0.38 µg/mL (≈ 0.889 µM); with Pasteurella (strain 14012, 10 mg cineol TE) it was 0.5 µg/mL (≈ 1.17 µM); in the series with Pasteurella (setting [3]) it was 0.5 µg/mL (≈ 1.17 µM). Moreover, the MIC (e-test) in the series with Pasteurella (strain 14012, DMSO control) is 0.5 µg/mL (≈ 1.17 µM); with Pasteurella (strain 14012, ED control) it was 0.5 µg/mL (≈ 1.17 µM); in the series with Pasteurella (strain 14012, TE control), 0.75 µg/mL (≈ 1.75 µM); against Pasteurella (strain 14014, 5 mg cineol DMSO), 0.19 µg/mL (≈ 0.444 µM); with Pasteurella (strain 14014, 5 mg cineol TE) it was 0.38 µg/mL (≈ 0.889 µM); against Pasteurella (strain 14014, 5 mg cineol water) it was 0.5 µg/mL (≈ 1.17 µM). The MIC (e-test) against Pasteurella (strain 14014, 10 mg cineol DMSO) worked out at 0.5 µg/mL (≈ 1.17 µM); in the series on Pasteurella (strain 14014, 10 mg cineol TE), 0.38 µg/mL (≈ 0.889 µM); in the series with Pasteurella (strain 14014, 10 mg cineol water), 0.38 µg/mL (≈ 0.889 µM); against Pasteurella (strain 14014, DMSO control) it was 0.38 µg/mL (≈ 0.889 µM); in the series with Pasteurella (strain 14014, ED Control), 0.38 µg/mL (≈ 0.889 µM); with Pasteurella (strain 14014, TE control), 0.5 µg/mL (≈ 1.17 µM). Further, the MIC came out at 4 µg/mL (≈ 9.36 µM) with E. coli (Coli 8138 (penicillinase), Cineol 1 mg DMSO); 4 µg/mL (≈ 9.36 µM) in the series with E. coli (Coli 8138 (penicillinase), Cineol 1 mg Tween/water); 4 µg/mL (≈ 9.36 µM) with E. coli (Coli 8138 (penicillinase), Cineol 4 mg DMSO); 3 µg/mL (≈ 7.02 µM) with E. coli (Coli 8138 (penicillinase), Cineol 4 mg Tween/water); 4 µg/mL (≈ 9.36 µM) in the series on E. coli (Coli 8138 (penicillinase), Cineol 16 mg DMSO); 1 µg/mL (≈ 2.34 µM) in the series with E. coli (Coli 8138 (penicillinase), Cineol 16 mg Tween/water). Also, the minimum inhibitory concentration (MIC) in the series on E. coli (Coli 8138 (penicillinase), DMSO control (antibiotic alone)) is 6 µg/mL (≈ 14 µM); in the series on E. coli (Coli 8138 (penicillinase), ED control (antibiotic alone in distilled water)), 6 µg/mL (≈ 14 µM); in the series on E. coli (Coli 8138 (penicillinase), Tween water control (antibiotic alone)), 6 µg/mL (≈ 14 µM); in the series with E. coli (Coli 8150, Cineol 1 mg DMSO), 8 µg/mL (≈ 18.7 µM); in the series on E. coli (Coli 8150, Cineol 1 mg Tween/water), 3 µg/mL (≈ 7.02 µM); with E. coli (Coli 8150, Cineol 4 mg DMSO), 3 µg/mL (≈ 7.02 µM). The MIC is 3 µg/mL (≈ 7.02 µM) in the series with E. coli (Coli 8150, Cineol 4 mg Tween/water); 3 µg/mL (≈ 7.02 µM) with E. coli (Coli 8150, Cineol 16 mg DMSO); 1 µg/mL (≈ 2.34 µM) in the series with E. coli (Coli 8150, Cineol 16 mg Tween/water); 8 µg/mL (≈ 18.7 µM) in the series with E. coli (Coli 8150, DMSO control (antibiotic alone)); 3 µg/mL (≈ 7.02 µM) in the series with E. coli (Coli 8150, ED control (antibiotic alone in distilled water)); 6 µg/mL (≈ 14 µM) in the series with E. coli (Coli 8150, Tween water control (antibiotic alone)).
